Where a name gives a salt, the structure may show the parent alone. Read-outs that look alike come from different tables or passages of the source.
Tests used:
HO-1 (rat spleen) = molecular target: T1, HO-1 (rat spleen) (Rattus norvegicus, UniProt P06762); assay: HO enzymatic activity in rat spleen microsomal fraction (CO formed from methemalbumin, gas chromatography); type: biochemical; conditions: rat spleen microsomes; average ± standard deviation of replicate experiments; read-out: IC50 HO-1 (rat spleen)/μM
T1 construct: Spleen microsomes were used as a source of HO-1; from tissue; host or cells: spleen microsomal fraction of adult male Sprague-Dawley rats
T1 sequence (P06762 1-289): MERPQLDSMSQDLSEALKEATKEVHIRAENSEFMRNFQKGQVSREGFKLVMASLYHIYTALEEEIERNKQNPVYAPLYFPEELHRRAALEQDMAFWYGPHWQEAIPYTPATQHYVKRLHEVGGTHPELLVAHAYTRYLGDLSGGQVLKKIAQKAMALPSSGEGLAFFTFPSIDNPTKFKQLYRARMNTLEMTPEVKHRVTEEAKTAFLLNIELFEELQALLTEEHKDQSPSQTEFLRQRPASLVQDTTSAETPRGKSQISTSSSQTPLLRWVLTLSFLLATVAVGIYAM

HO-2 (rat brain) = molecular target: T2, HO-2 (rat brain) (Rattus norvegicus, UniProt P23711); assay: HO enzymatic activity in rat brain microsomal fraction (CO formed from methemalbumin, gas chromatography); type: biochemical; conditions: rat brain microsomes, average ± standard deviation of replicate experiments, read-out: IC50 HO-2 (rat brain)/μM
T2 construct: brain microsomes were used as a source of HO-2; from tissue; host or cells: brain microsomal fraction of adult male Sprague-Dawley rats
T2 sequence (P23711 1-315): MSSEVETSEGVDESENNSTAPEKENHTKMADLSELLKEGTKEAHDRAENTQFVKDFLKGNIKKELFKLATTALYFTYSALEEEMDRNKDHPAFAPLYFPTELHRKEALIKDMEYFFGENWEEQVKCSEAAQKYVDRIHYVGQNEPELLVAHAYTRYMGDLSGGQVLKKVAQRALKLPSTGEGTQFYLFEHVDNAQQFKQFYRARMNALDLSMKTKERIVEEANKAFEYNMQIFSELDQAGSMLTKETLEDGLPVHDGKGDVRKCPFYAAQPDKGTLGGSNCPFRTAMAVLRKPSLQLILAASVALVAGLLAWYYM

Row | Structure (SMILES) | IC50 (HO-1 (rat spleen)) | IC50 (HO-2 (rat brain)) | IC50 (HO-2 (rat brain); hydrochloride)
1 | Clc1ccc(C2(Cn3ccnc3)OCCO2)cc1 [1-[2-(4-chloro-phenyl)-[1,3]dioxolan-2-ylmethyl]-1H-imidazole hydrochloride] | 19 ± 3 µM | > 100 µM | –
2 | FC(F)(F)c1ccc(CCCCn2ccnc2)cc1 [1-[4-(4-(Trifluoromethyl)phenyl)butyl]-1H-imidazole hydrochloride] | 0.38 ± 0.09 µM | > 100 µM | –
3 | O=C(CCn1ccnc1)C12CC3CC(CC(C3)C1)C2 [1-adamantan-1-yl-3-imidazol-1-yl-propan-1-one hydrochloride] | 3.5 ± 0.8 µM | ~100 µM | –
4 | c1cn(CC23CC4CC(CC(C4)C2)C3)cn1 [1-adamantan-1-ylmethyl-1H-imidazole hydrochloride] | 2.2 ± 0.5 µM | > 100 µM | –
5 | O=C(CCCc1ccccc1)Cn1ccnc1 [1-imidazol-1-yl-5-phenyl-pentan-2-one hydrochloride] | 1.5 ± 0.2 µM | 6 ± 0.1 µM | –
6 | O=C(CCc1ccccc1)CCn1ccnc1 [1-imidazol-1-yl-5-phenyl-pentan-3-one hydrochloride] | 28 ± 6 µM | 114 ± 56 µM | –
7 | Cn1ccnc1 [1-methylimidazole hydrochloride, reference compound] | > 100 µM | > 100 µM | –
8 | O=C(Cn1cncn1)c1cccc2ccccc12 [1-naphthalen-1-yl-2-[1,2,4]triazol-1-yl-ethanone hydrochloride] | 0.79 ± 0.04 µM | 16 ± 5 µM | –
9 | c1ccc(CCC2(Cn3nccn3)OCCO2)cc1 [2-(2-Phenethyl-[1,3]dioxolan-2-ylmethyl)-2H-[1,2,3]triazole] | > 100 µM | > 100 µM | –
10 | c1ccc(CCC2(Cn3ncnn3)OCCO2)cc1 [2-(2-Phenethyl-[1,3]dioxolan-2-ylmethyl)-2H-tetrazole hydrochloride] | 72 ± 1 µM | > 100 µM | –
11 | c1ccc(CCC2(Cn3ccnn3)OCCO2)cc1 [2-(2-phenethyl)-2-{(1H-[1,2,3]triazol-1-yl)methyl}-1,3-dioxolane hydrochloride] | > 100 µM | > 100 µM | –
12 | c1ccc(CCC2(Cn3cncn3)OCCO2)cc1 [2-(2-phenethyl)-2-{(1H-[1,2,4]triazol-1-yl)methyl}-1,3-dioxolane hydrochloride] | 13 ± 2 µM | > 100 µM | –
13 | O=C(Cn1ccnc1)c1ccc2ccc3cccc4ccc1c2c34 [2-Imidazol-1-yl-1-pyren-1-yl-ethanone hydrochloride] | 14 ± 3 µM | > 100 µM | –
14 | Brc1ccc(CCC2(Cn3ccnc3)OCCO2)cc1 [2-[2-(4-bromophenyl)ethyl]-2-[(1H-imidazol-1-yl)methyl]-1,3-dioxolane hydrochloride] | 1.9 ± 0.2 µM | – | > 100 µM
15 | Clc1ccc(CCC2(Cn3ccnc3)OCCO2)cc1 [2-[2-(4-chlorophenyl)ethyl]-2-[(1H-imidazol-1-yl)methyl]-1,3-dioxolane hydrochloride] | 4 ± 2 µM | > 100 µM | –
16 | c1ccc(CCC2(Cn3ccnc3)OCCO2)cc1 [2-[2-phenylethyl]-2-[(1H-imidazol-1-yl)methyl]-1,3-dioxolane hydrochloride] | 0.7 ± 0.4 µM | > 100 µM | –
17 | O=C(Cn1ccnc1)c1ccc(I)cc1 [2-imidazol-1-yl-1-(4-iodo-phenyl)ethanone] | 4 ± 1 µM | 25 ± 5 µM | –
18 | O=C(Cn1ccnc1)c1ccc(CCc2ccccc2)cc1 [2-imidazol-1-yl-1-(4-phenethyl-phenyl)ethanone hydrochloride] | 4 ± 2 µM | 0.9 ± 0.1 µM | –
19 | O=C(Cn1ccnc1)c1ccc2c(c1)CCCC2 [2-imidazol-1-yl-1-(5,6,7,8-tetrahydro-naphthalen-2-yl)-ethanone hydrochloride] | 4 ± 1 µM | 6.7 ± 0.3 µM | –

Row | Structure (SMILES) | IC50 (HO-1 (rat spleen)) | IC50 (HO-2 (rat brain)) | IC50 (HO-2 (rat brain); hydrochloride)
20 | O=C(Cn1ccnc1)c1ccc2c(c1)CCC2 [2-imidazol-1-yl-1-indan-5-yl-ethanone hydrochloride] | 4.6 ± 0.1 µM | 37 ± 9 µM | –
21 | c1ccc2c(CCn3ccnc3)c[nH]c2c1 [3-[2-(1H-Imidazol-1-yl)-ethyl]-1H-indole hydrochloride] | 40 ± 7 µM | > 100 µM | –
22 | O=C(CCn1ccnc1)C(c1ccccc1)c1ccccc1 [4-(1H-Imidazol-1-yl)-1,1-diphenyl-butan-2-one hydrochloride] | 2.6 ± 0.1 µM | 2.2 ± 0.2 µM | –
23 | O=C(CCc1ccc(OC(=O)c2ccccc2)cc1)Cn1ccnc1 [4-(4-(1H-Imidazol-1-yl)-3-oxobutyl)phenyl benzoate hydrochloride] | 6.7 ± 0.2 µM | > 100 µM | –
24 | O=C(CCc1ccc(C(F)(F)F)cc1)Cn1ccnc1 [4-(4-(Trifluoromethyl)phenyl)-1-(1H-imidazol-1-yl)-2-butanone hydrochloride] | 0.25 ± 0.01 µM | 1.4 ± 0.1 µM | –
25 | O=C(CCc1ccc(O)cc1)Cn1ccnc1 [4-(4-Hydroxyphenyl)-1-(1H-imidazol-1-yl)butan-2-one hydrochloride] | > 100 µM | > 100 µM | –
26 | OC(CCc1ccc(Cl)cc1)Cn1ccnc1 (centres unmarked) [4-(4-chlorophenyl)-1-(1H-imidazol-1-yl)butan-2-ol hydrochloride] | 0.5 ± 0.1 µM | 4 ± 0.6 µM | –
27 | Clc1ccc(CCCCn2ccnc2)cc1 [4-(4-chlorophenyl)-1-(1H-imidazol-1-yl)butane hydrochloride] | 0.47 ± 0.05 µM | 4 ± 2 µM | –
28 | O=C(CCc1ccc(I)cc1)Cn1ccnc1 [4-(4-iodophenyl)-1-(1H-imidazol-1-yl)butan-2-one hydrochloride] | 0.11 ± 0.06 µM | 1.8 ± 0.7 µM | –
29 | CC(C)(C)c1ccc(CCC(=O)Cn2ccnc2)cc1 [4-(4-tert-Butyl-phenyl)-1-(1H-imidazol-1-yl)-butan-2-one hydrochloride] | 0.2 ± 0.03 µM | 0.9 ± 0.2 µM | –
30 | O=C(CCc1ccccc1)Cn1cnc(-c2ccccc2)n1 [4-Phenyl-1-(3-phenyl-[1,2,4]triazol-1-yl)-butan-2-one] | 9 ± 2 µM | 90 ± 33 µM | –
31 | O=C(CCc1ccccc1)Cn1nnnc1-c1ccccc1 [4-Phenyl-1-(5-phenyl-tetrazol-1-yl)-butan-2-one] | > 100 µM | > 100 µM | –
32 | O=C(CCc1ccccc1)Cn1nnc(-c2ccccc2)n1 [4-Phenyl-1-(5-phenyl-tetrazol-2-yl)-butan-2-one] | > 100 µM | > 100 µM | –
33 | O=C(CCc1ccccc1)Cn1ccnc1-c1ccccc1 [4-phenyl-1-(2-phenyl-imidazol-1-yl)butan-2-one hydrochloride] | > 100 µM | > 100 µM | –
34 | Clc1ccc(OCCCCCNc2nc3ccccc3[nH]2)cc1 [(1H-Benzoimidazol-2-yl)-[5-(4-chloro-phenoxy)-pentyl]-amine] | ~98 µM | ~105 µM | –
35 | [N-]=[N+]=NC[C@@H]1CO[C@@](CCc2ccc(Cl)cc2)(Cn2ccnc2)O1 [(2R,4R)-1-{4-azidomethyl-2-[2-(4-chloro-phenyl)-ethyl]-[1,3]dioxolan-2-ylmethyl}-1H-imidazole] | 3.6 ± 0.2 µM | 38 ± 5 µM | –
36 | OC[C@@H]1CO[C@@](CCc2ccc(Cl)cc2)(Cn2ccnc2)O1 [(2R,4R)-2-[2-(4-chlorophenyl)ethyl]-2-[(1H-imidazol-1-yl)methyl]-4-(hydroxymethyl)-1,3-dioxolane hydrochloride] | 12 ± 2 µM | > 100 µM | –
37 | Clc1ccc(CC[C@@]2(Cn3ccnc3)OC[C@@H](Cn3ccnc3)O2)cc1 [(2R,4R)-2-[2-(4-chlorophenyl)ethyl]-2-[(1H-imidazol-1-yl)methyl]-4-[(1H-imidazol-1-yl)methyl]-1,3-dioxolane dihydrochloride] | 10 ± 6 µM | 26 ± 3 µM | –

Reference: patent publication US20140155445A1, “Compounds and Methods for Treating Cancer and Diseases of the Central Nervous System” (Osta Biotechnologies Inc., priority 2007, published 2014)
